Experimental data: patent US20100267561A1, “HERBICIDAL PYRIDAZINONE DERIVATIVES” (priority 2007, published 2010)

Legend:
Type in all cases: in vivo
[1] = system: wheat (Triticum aestivum); assay: Test A pre-/postemergence plant response
Method in brief: (§1)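 Seeds in loam soil/sand blend treated preemergence by directed soil spray, with simultaneous postemergence spray on 2–10 cm plants at one- to two-leaf stage; compounds in non-phytotoxic solvent with surfactant. Injury visually rated versus untreated controls after about 10 days in greenhouse, 0 (no effect) to 100 (complete control).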

[2] = system: velvetleaf (Abutilon theophrasti); assay: Test A pre-/postemergence plant response
Method in brief: as §1

[3] = system: large crabgrass (Digitaria sanguinalis); assay: Test A pre-/postemergence plant response
Method in brief: as §1

[4] = system: barnyardgrass (Echinochloa crus-galli); assay: Test A pre-/postemergence plant response
Method in brief: as §1

[5] = system: giant foxtail (Setaria faberi); assay: Test A pre-/postemergence plant response
Method in brief: as §1

[6] = system: pigweed (Amaranthus retroflexus); assay: Test A pre-/postemergence plant response
Method in brief: as §1

corn (Zea mays) = assay: Test A pre-/postemergence plant response
Method in brief: as §1

[7] = system: morningglory (Ipomoea coccinea); assay: Test A pre-/postemergence plant response
Method in brief: as §1

[8] = system: barnyardgrass (Echinochloa crus-galli); assay: Test B flooded paddy test plant response
Method in brief: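 Compounds were added directly to paddy water over 2-leaf-stage plants in pots flooded 3 cm above soil, water depth maintained. Visual injury scored against controls after 13 to 15 days in greenhouse, 0 (none) to 100 (complete control); dash indicates no result.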

[9] = system: eastern black (E.B.) nightshade (Solanum ptycanthum); assay: Test B pre-/postemergence plant response; details: Preemergence; for Nightshade, E. B. plant response rating: 8 g ai/ha
Method in brief: (§2)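 Preemergence and postemergence (plants 2-18 cm, 1- to 4-leaf stage) applications used test chemicals in a non-phytotoxic solvent with surfactant. Plants were held in a greenhouse 13 to 15 days, then rated visually against controls on a 0-100 scale (0 no effect, 100 complete control).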

[10] = system: green foxtail (Setaria viridis); assay: Test B pre-/postemergence plant response; details: for Foxtail, Green plant response rating: 8 g ai/ha
Method in brief: as §2

[11] = Postemergence, 125 g ai/ha, 0 to 100 scale, 0 no effect, 100 complete control
[12] = Postemergence, 500 g ai/ha, 0 to 100 scale, 0 no effect, 100 complete control
[13] = Preemergence, 125 g ai/ha, 0 to 100 scale (0 no effect, 100 complete control)
[14] = Preemergence, 500 g ai/ha, 0 to 100 scale (0 no effect, 100 complete control)
[15] = Flood (flooded paddy test), 62 g ai/ha, scale 0 to 100, 0 no effect, 100 complete control
[16] = Flood (flooded paddy test), 125 g ai/ha, scale 0 to 100, 0 no effect, 100 complete control
[17] = Flood (flooded paddy test), 250 g ai/ha, scale 0 to 100, 0 no effect, 100 complete control
[18] = Flood, 31 g ai/ha, scale 0 to 100
[19] = 16 g ai/ha, scale 0 to 100 (0 no effect, 100 complete control)
[20] = 31 g ai/ha, 0 to 100 scale, 0 no effect, 100 complete control
[21] = Preemergence, 16 g ai/ha, scale 0 to 100 (0 no effect, 100 complete control)
[22] = Preemergence, 31 g ai/ha, 0 to 100 scale, 0 no effect, 100 complete control
[23] = Preemergence, 62 g ai/ha, scale 0 to 100
[24] = Postemergence, 31 g ai/ha, 0 to 100 scale (0 no effect, 100 complete control)
[25] = Preemergence, 31 g ai/ha, 0 to 100 scale, 0 is no effect, 100 is complete control

Cn1ncc(O)c(-c2nn(-c3ccc(Cl)cc3)cc2Br)c1=O [Compound 31]
70: Plant response rating, Corn (corn (Zea mays); [12]) | Plant response rating, Corn (corn (Zea mays); [14])
98: Plant response rating, Foxtail, Green [10, 21]
40: Plant response rating, Wheat [1, 11]
100: Plant response rating, Crabgrass, Large [3, 13] | Plant response rating, Crabgrass, Large [3, 14] | Plant response rating, Barnyardgrass [4, 13] | Plant response rating, Barnyardgrass [4, 14] | Plant response rating, Foxtail, Giant [5, 13] | Plant response rating, Foxtail, Giant [5, 14] | Plant response rating, Foxtail, Green [10, 22] | Plant response rating, Foxtail, Green [10, 23]
60: Plant response rating, Wheat [1, 12] | Plant response rating, Wheat [1, 13] | Plant response rating, Crabgrass, Large [3, 11] | Plant response rating, Barnyardgrass [4, 11]
65: Foxtail, Green plant response rating ([10]; Preemergence, scale 0 to 100)
50: Plant response rating, Corn (corn (Zea mays); [13])
0: Plant response rating, Velvetleaf [2, 11] | Plant response rating, Velvetleaf [2, 12] | Plant response rating, Velvetleaf [2, 13] | Plant response rating, Velvetleaf [2, 14] | Plant response rating, Pigweed [6, 11] | Plant response rating, Pigweed [6, 12] | Plant response rating, Pigweed [6, 13] | Plant response rating, Morningglory [7, 11] | Plant response rating, Morningglory [7, 12] | Plant response rating, Morningglory [7, 13] | Plant response rating, Morningglory [7, 14] | Plant response rating, Barnyardgrass [8, 15] | Plant response rating, Barnyardgrass [8, 16] | Plant response rating, Barnyardgrass [8, 17] | Plant response rating, Barnyardgrass [8, 18] | Plant response rating, Nightshade, E. B. [9, 19] | Plant response rating, Nightshade, E. B. [9, 20] | Plant response rating, Nightshade, E. B. ([9]; 62 g ai/ha, scale 0 to 100) | Nightshade, E. B. plant response rating ([9]; scale 0 to 100)
90: Plant response rating, Wheat [1, 14] | Plant response rating, Crabgrass, Large [3, 12] | Plant response rating, Barnyardgrass [4, 12] | Plant response rating, Foxtail, Giant [5, 11] | Plant response rating, Foxtail, Giant [5, 12]
20: Plant response rating, Pigweed [6, 14]
10: Plant response rating, Corn (corn (Zea mays); [11])

COC(=O)Oc1cnn(C)c(=O)c1-n1nc(-c2ccc(Cl)cc2)cc1C [Compound 33]
70: Plant response rating, Wheat [1, 11]
30: Plant response rating, Corn (corn (Zea mays); [25]) | Plant response rating, Barnyardgrass [8, 18]
0: Plant response rating, Velvetleaf [2, 24] | Plant response rating, Velvetleaf [2, 11] | Plant response rating, Velvetleaf [2, 25] | Plant response rating, Velvetleaf [2, 13] | Plant response rating, Pigweed [6, 24] | Plant response rating, Pigweed [6, 11] | Plant response rating, Pigweed [6, 13] | Plant response rating, Morningglory [7, 24] | Plant response rating, Morningglory [7, 11] | Plant response rating, Morningglory [7, 25] | Plant response rating, Morningglory [7, 13] | Plant response rating, Nightshade, E. B. [9, 19] | Plant response rating, Nightshade, E. B. [9, 20] | Plant response rating, Nightshade, E. B. ([9]; 62 g ai/ha, scale 0 to 100) | Nightshade, E. B. plant response rating ([9]; scale 0 to 100)
80: Plant response rating, Wheat [1, 13]
85: Plant response rating, Barnyardgrass [8, 16] | Foxtail, Green plant response rating ([10]; postemergence, 0-100 scale) | Plant response rating, Foxtail, Green ([10]; Postemergence, 16 g ai/ha, scale 0 to 100)
60: Plant response rating, Corn (corn (Zea mays); [24]) | Plant response rating, Barnyardgrass [8, 15]
90: Plant response rating, Crabgrass, Large [3, 24] | Plant response rating, Crabgrass, Large [3, 25] | Plant response rating, Barnyardgrass [4, 24] | Plant response rating, Foxtail, Giant [5, 24] | Plant response rating, Corn (corn (Zea mays); [11]) | Plant response rating, Corn (corn (Zea mays); [13])
20: Plant response rating, Wheat [1, 24]
50: Plant response rating, Wheat [1, 25]
100: Plant response rating, Crabgrass, Large [3, 11] | Plant response rating, Crabgrass, Large [3, 13] | Plant response rating, Barnyardgrass [4, 11] | Plant response rating, Barnyardgrass [4, 25] | Plant response rating, Barnyardgrass [4, 13] | Plant response rating, Foxtail, Giant [5, 11] | Plant response rating, Foxtail, Giant [5, 25] | Plant response rating, Foxtail, Giant [5, 13] | Plant response rating, Barnyardgrass [8, 17] | Plant response rating, Foxtail, Green ([10]; Postemergence, 31 g ai/ha, scale 0 to 100, 0 no effect, 100 complete control) | Plant response rating, Foxtail, Green ([10]; Postemergence, 62 g ai/ha, scale 0 to 100, 0 no effect, 100 complete control) | Plant response rating, Foxtail, Green [10, 21] | Plant response rating, Foxtail, Green [10, 22] | Plant response rating, Foxtail, Green [10, 23] | Foxtail, Green plant response rating ([10]; Preemergence, scale 0 to 100)
